The source of these data is ChEMBL document CHEMBL1201862, “PubChem BioAssay data set” (2004).

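Each compound was tested at five concentrations against cells in 96-well plates for 48 hours. At the GI50, growth is halved.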 Calls of active or inactive are those of the source. Rule as the data show it: active = GI50 up to about 1.1 µM and inactive = higher.

What all share (assay): DTP human tumour cell line panel, 48 h
Assay [1] relates to A549.
Assay [2] relates to ACHN.
Assay [3] has as its system BT-549.
For assay [4], the system named is CAKI-1.
For assay [5], the system named is HCT-15.
The test system of assay [6] is HOP-92.
The subject of assay [7] is K562.
Assay [8] has as its system KM12.
Assay [9] deals with LOX IMVI.
For assay [10], the system named is MCF7.
The test system of assay [11] is NCI-H460.
In assay [12] the test system is NCI-H522.
Assay [13] relates to PC-3.
The test system of assay [14] is SF-268.
Assay [15] has as its system SN12C.
Assay [16] concerns SR.
For assay [17], the system named is SW-620.
Assay [18] relates to T47D.
Assay [19] has as its system TK-10.
Assay [20] relates to UACC-62.

As to `O=C(Nc1cnc(O)nc1O)Oc1ccccc1`, the GI50 in [1] was > 100 µM (inactive); in [2], > 100 µM (inactive); in assay [3], > 100 µM (inactive); in assay [4], > 100 µM (inactive); in assay [5], more than 100 µM; in [6], > 100 µM (inactive). The GI50 in assay [7], in assay [8], in assay [9], in assay [10], in [11] and in assay [12] was > 100 µM (inactive) throughout. The GI50 in assay [13], in assay [14], in assay [15], in [16], in assay [17] and in assay [18] was > 100 µM (inactive) each time. The GI50 in assay [19] and in assay [20] was > 100 µM (inactive) in each case.
Consider `CCN(CC)CCn1c2ccccc2c(=O)c2c(O)ccc(O)c21`, for which the GI50 in assay [1] was 83.9 µM (inactive); in [2], 33.7 µM (inactive); in [3], 22.5 µM (inactive); in [4] it was 35.5 µM (inactive); in assay [5], 33.8 µM; in [6], 19.4 µM (inactive). The GI50 was 15.9 µM (inactive) in [7]; 49.2 µM (inactive) in assay [8]; 15.1 µM (inactive) in assay [9]; 18.8 µM (inactive) in assay [10]; > 57.9 µM (inactive) in assay [11]; 15.4 µM (inactive) in assay [12]. The GI50 is 24.5 µM (inactive) in [13]; 30.5 µM (inactive) in [14]; 30.8 µM (inactive) in assay [15]; 12.4 µM (inactive) in assay [16]; 13.8 µM (inactive) in assay [17]; 18.2 µM (inactive) in assay [18]. Further, the GI50 in [19] is 31.6 µM (inactive); in assay [20] it was 3.48 µM (inactive).
Regarding `COc1ccc(NC(=S)NC(=O)c2ccc3c(c2)Sc2ccccc2O3)c([N+](=O)[O-])c1`, the GI50 is 42.1 µM (inactive) in assay [1]; 21.4 µM (inactive) in assay [2]; 37.1 µM (inactive) in [3]; 39.1 µM (inactive) in assay [4]; 24 µM in assay [5]; 19.2 µM (inactive) in assay [6]. Moreover, the GI50 was 64.1 µM (inactive) in [7]; 60.1 µM (inactive) in assay [8]; > 100 µM (inactive) in assay [9]; 27.6 µM (inactive) in assay [10]; 43.9 µM (inactive) in assay [11]; 14.9 µM (inactive) in assay [12]. Moreover, the GI50 is 43.1 µM (inactive) in assay [13]; 19.4 µM (inactive) in assay [14]; 35.1 µM (inactive) in assay [15]; 28.8 µM (inactive) in assay [16]; 0.387 µM (active) in [17]; 22.4 µM (inactive) in [18]. In addition, the GI50 in assay [19] was 17.9 µM (inactive); in assay [20] it was 30.3 µM (inactive).
In the case of `Oc1ccccc1/C=N/Nc1nnc2c3ccccc3c3ccccc3c2n1`, the GI50 in assay [1] is > 100 µM (inactive); in assay [2] it was > 100 µM (inactive); in assay [3], > 100 µM (inactive); in assay [4], > 100 µM (inactive); in [5], 73.6 µM; in [6], > 100 µM (inactive). Moreover, the GI50 is > 100 µM (inactive) in [7]; 71.4 µM (inactive) in assay [8]; 84.3 µM (inactive) in [9]; 32.3 µM (inactive) in [10]; 41.8 µM (inactive) in assay [11]; 20 µM (inactive) in assay [12]. Further, the GI50 in assay [13] was 80.5 µM (inactive); in assay [14], > 100 µM (inactive); in assay [15], > 100 µM (inactive); in assay [16], 52.6 µM (inactive); in [17], 82.4 µM (inactive); in assay [18], 65 µM (inactive). Further, the GI50 is 45.4 µM (inactive) in assay [19] and 61.4 µM (inactive) in assay [20].
On to `CC1OC(OC2C(O)COC(OC3C(C)OC(OC4C(OC(=O)[C@]56CCC(C)(C)C[C@@H]5C5=CCC7[C@@]8(C)C[C@H](O)[C@H](OC9OC(CO)C(O)C(O)C9O)[C@@](C)(CO)[C@@H]8CC[C@@]7(C)[C@]5(C)CC6)OCC(O)C4O)C(O)C3OC3OCC(O)C(O)C3O)C2O)C(O)C(O)C1O` (stereo not given in full), for which the GI50 is 14 µM (inactive) in assay [1]; 17.8 µM (inactive) in assay [2]; 31.9 µM (inactive) in [3]; 10.7 µM (inactive) in [4]; 28.8 µM in assay [5]; 24.8 µM (inactive) in assay [6]. Moreover, the GI50 is 42.9 µM (inactive) in assay [7]; 25.7 µM (inactive) in [8]; 18.9 µM (inactive) in assay [9]; 19.8 µM (inactive) in assay [10]; 20.1 µM (inactive) in assay [11]; 44.9 µM (inactive) in assay [12]. The GI50 was 14 µM (inactive) in [13]; 29.2 µM (inactive) in [14]; 17.5 µM (inactive) in assay [15]; 17.9 µM (inactive) in assay [16]; 14.9 µM (inactive) in assay [17]; 20.2 µM (inactive) in assay [18]. Further, the GI50 in assay [19] was 17.3 µM (inactive); in assay [20], 22.3 µM (inactive).
For `CCOC(=O)/C(C#N)=C/c1ccc2c(c1)CC1(C2)Cc2cc(CC)c(C(C)O)cc2C1` (stereo not given), the GI50 in assay [1] was 44.1 µM (inactive); in [2], 30.3 µM (inactive); in [3], 10.8 µM (inactive); in assay [4] it was 57.9 µM (inactive); in assay [5] it was 5.24 µM; in assay [6] it was 16.5 µM (inactive). Moreover, the GI50 in assay [7] is 4.31 µM (inactive); in [8], 19.6 µM (inactive); in [9] it was 6.95 µM (inactive); in assay [10] it was 5.18 µM (inactive); in assay [11] it was 23.2 µM (inactive); in assay [12], 47 µM (inactive). Further, the GI50 in assay [13] is 10.2 µM (inactive); in assay [14], 13 µM (inactive); in [15], 14.2 µM (inactive); in assay [16] it was 5.05 µM (inactive); in assay [17], 5.38 µM (inactive); in assay [18], 27.9 µM (inactive). Besides, the results for the GI50 in assay [19] and in assay [20] were 25.5 µM (inactive) and 7.83 µM (inactive), respectively.
With `C[Si](C)(C)OC1c2[nH]c3ccccc3c2CN2C(=O)CCC12` (stereo not given), the GI50 is > 100 µM (inactive) in [1]; > 100 µM (inactive) in [2]; > 100 µM (inactive) in assay [3]; > 100 µM (inactive) in assay [4]; more than 100 µM in assay [5]; > 100 µM (inactive) in assay [6]. Also, the GI50 in [7], in assay [8], in assay [9], in assay [10], in assay [11] and in assay [12] was > 100 µM (inactive) in each case. Moreover, the GI50 in assay [13], in assay [14], in [15], in assay [16], in assay [17] and in assay [18] was > 100 µM (inactive) throughout. The GI50 in [19] and in assay [20] was > 100 µM (inactive) throughout.
As for `CCC(=O)Oc1ccc2c(c1)c(=O)c1c(NCCCN(C)C)ccc3nnn2c31`, the GI50 was 0.275 µM (active) in [1]; 0.385 µM (active) in assay [2]; 12.3 µM (inactive) in assay [3]; 0.664 µM (active) in [4]; 0.4 µM in assay [5]; 3.48 µM (inactive) in assay [6]. Besides, the GI50 in assay [7] is 0.726 µM (active); in assay [8], 0.796 µM (active); in assay [9], 1.03 µM (active); in [10], 0.536 µM (active); in [11] it was 0.0348 µM (active); in assay [12], 0.188 µM (active). Also, the GI50 in assay [13] was 2.48 µM (inactive); in assay [14], 1.8 µM (inactive); in assay [15], 0.525 µM (active); in assay [16], 0.201 µM (active); in assay [17], 0.322 µM (active); in [18], 15.7 µM (inactive). Also, the GI50 in assay [19] is 0.818 µM (active); in assay [20] it was 11.2 µM (inactive).
For `CC(=O)Nc1cc([As](=O)(O)O)ccc1O` [ACETARSONE], the GI50 in [1] was > 100 µM (inactive); in assay [2], > 100 µM (inactive); in assay [3] it was > 100 µM (inactive); in assay [4], > 100 µM (inactive); in [5], more than 100 µM; in assay [6], > 100 µM (inactive). In addition, the GI50 in assay [7], in assay [8], in assay [9], in assay [10], in assay [11] and in assay [12] was > 100 µM (inactive) each time. For the same compound, the GI50 in [13], in assay [14], in assay [15], in assay [16], in [17] and in assay [18] was > 100 µM (inactive) throughout. The GI50 in [19] and in assay [20] was > 100 µM (inactive) in each case.

One may read the GI50 as the concentration giving 50% growth inhibition.
